Reference: US7067714B1 (priority 1999, dated 2006)

Columns and labels:
N-type Ca channel = type: cell-based, mouse

| Compound | increase in atrial muscle contractile force by nerve stimulus (isolated mouse atrium) | influx of Ca2+ inhibited by ω-conotoxin GVIA (N-type Ca channel) |
| --- | --- | --- |
| NC1=N[C@H](O)[C@H]2[C@H]3O[C@]4(O)O[C@@H]([C@@H](O)[C@@]2(N1)[C@@H]4O)[C@]3(O)CO [tetrodotoxin] | completely inhibited | – |
| ω-conotoxin GVIA | – | not observed |
